Measured values as given in ChEMBL document CHEMBL5634127, “Synthesis of novel rhodamine type Anthrone Spiro-lactam (ASL) analogues and evaluation of antiviral activity against dengue and chikungunya viruses” (Eur J Med Chem, 2023).
Activity calls are given as the source filed them. The calls are words filed in the database; no cut-off is given here.

Key:
[1] = Cytotoxicity against green monkey Vero cells incubated for 5 days by MTT assay; type: toxicity, cell-based; details: chlorocebus sabaeus, time 5 day
[2] = Cytotoxicity against green monkey Vero cells assessed as cell viability at 0.78 to 100 uM incubated for 5 days by MTT assay relative to control; type: toxicity, cell-based; details: chlorocebus sabaeus, dose 0.78-100 µM, time 5 day, read-out: Activity
Chikungunya virus [3] = assay: Antiviral activity against Chikungunya virus infected in green monkey Vero cells assessed as reduction in viral growth at 50 uM preincubated for 1 hr with compound followed by virus infection and measured after 24 hrs by focus forming unit assay; type: functional, organism-based; details: time 25.0 hrs
Chikungunya virus [4] = assay: Antiviral activity against Chikungunya virus infected in green monkey Vero cells assessed as reduction in viral growth at 50 uM incubated for 1 hr along with virus infection and measured after 24 hrs by focus forming unit assay; type: functional, organism-based; details: time 25.0 hrs
Dengue virus [5] = assay: Antiviral activity against Dengue virus infected in green monkey Vero cells assessed as reduction in colony forming unit at 50 uM incubated for 1 hr after the virus infection and measured after 120 hrs by focus forming unit assay; type: functional; details: time 121 hrs
Dengue virus [6] = assay: Antiviral activity against Dengue virus infected in green monkey Vero cells assessed as reduction in colony forming unit incubated for 1 hr after the virus infection and measured after 120 hrs by focus forming unit assay; type: functional, organism-based; details: time 121.0 hrs
Dengue virus [7] = assay: Antiviral activity against Dengue virus infected in green monkey Vero cells assessed as reduction in viral titer at 50 uM incubated for 1 hr after the virus infection and measured after 120 hrs by focus forming unit assay (reference value: 6.134 log10FFU/ml); type: functional; details: time 121 hrs
Chikungunya virus [8] = assay: Antiviral activity against Chikungunya virus infected in green monkey Vero cells assessed as reduction in colony forming unit at 50 uM incubated for 1 hr after the virus infection and measured after 24 hrs by focus forming unit assay; type: functional; details: time 25 hrs
Chikungunya virus [9] = assay: Antiviral activity against Chikungunya virus infected in green monkey Vero cells assessed as reduction in viral growth incubated for 1 hr after the virus infection and measured after 24 hrs by focus forming unit assay; type: functional, organism-based; details: time 25.0 hrs
Dengue virus [10] = assay: Antiviral activity against Dengue virus infected in green monkey Vero cells assessed as reduction in viral titer at 25 uM incubated for 1 hr after the virus infection and measured after 120 hrs by focus forming unit assay (reference value: 6.134 log10FFU/ml); type: functional; details: time 121 hrs
Dengue virus [11] = assay: Antiviral activity against Dengue virus infected in green monkey Vero cells assessed as reduction in viral titer at 100 uM incubated for 1 hr after the virus infection and measured after 120 hrs by focus forming unit assay (reference value: 6.134 log10FFU/ml); type: functional; details: time 121 hrs
Dengue virus [12] = assay: Antiviral activity against Dengue virus infected in green monkey Vero cells assessed as reduction in colony forming unit at 100 uM incubated for 1 hr after the virus infection and measured after 120 hrs by focus forming unit assay; type: functional; details: time 121 hrs
Chikungunya virus [13] = assay: Antiviral activity against Chikungunya virus infected in green monkey Vero cells assessed as reduction in viral growth at 100 uM preincubated for 1 hr with compound followed by virus infection and measured after 24 hrs by focus forming unit assay; type: functional, organism-based; details: time 25.0 hrs
Chikungunya virus [14] = assay: Antiviral activity against Chikungunya virus infected in green monkey Vero cells assessed as reduction in viral growth at 100 uM incubated for 1 hr along with virus infection and measured after 24 hrs by focus forming unit assay; type: functional, organism-based; details: time 25.0 hrs
Dengue virus [15] = assay: Antiviral activity against Dengue virus infected in green monkey Vero cells assessed as reduction in colony forming unit incubated for 1 hr along with virus infection and measured after 120 hrs by focus forming unit assay; type: functional, organism-based; details: time 121.0 hrs
Dengue virus [16] = assay: Antiviral activity against Dengue virus infected in green monkey Vero cells assessed as reduction in colony forming unit at 12.5 uM incubated for 1 hr along with virus infection and measured after 120 hrs by focus forming unit assay (reference value: 5.187 log10FFU/ml); type: functional; details: time 121 hrs
Chikungunya virus [17] = assay: Antiviral activity against Chikungunya virus infected in green monkey Vero cells assessed as reduction in viral growth at 12.5 uM preincubated for 1 hr with compound followed by virus infection and measured after 24 hrs by focus forming unit assay; type: functional, organism-based; details: time 25.0 hrs
Chikungunya virus [18] = assay: Antiviral activity against Chikungunya virus infected in green monkey Vero cells assessed as reduction in viral growth at 12.5 uM incubated for 1 hr along with virus infection and measured after 24 hrs by focus forming unit assay; type: functional, organism-based; details: time 25.0 hrs
Chikungunya virus [19] = assay: Antiviral activity against Chikungunya virus infected in green monkey Vero cells assessed as reduction in viral growth at 6.25 uM preincubated for 1 hr with compound followed by virus infection and measured after 24 hrs by focus forming unit assay; type: functional, organism-based; details: time 25.0 hrs
Chikungunya virus [20] = assay: Antiviral activity against Chikungunya virus infected in green monkey Vero cells assessed as reduction in viral growth at 6.25 uM incubated for 1 hr along with virus infection and measured after 24 hrs by focus forming unit assay; type: functional, organism-based; details: time 25.0 hrs
Chikungunya virus [21] = assay: Antiviral activity against Chikungunya virus infected in green monkey Vero cells assessed as reduction in viral growth at 3.125 uM preincubated for 1 hr with compound followed by virus infection and measured after 24 hrs by focus forming unit assay; type: functional, organism-based; details: time 25.0 hrs
Chikungunya virus [22] = assay: Antiviral activity against Chikungunya virus infected in green monkey Vero cells assessed as reduction in viral growth at 3.125 uM incubated for 1 hr along with virus infection and measured after 24 hrs by focus forming unit assay; type: functional, organism-based; details: time 25.0 hrs

With COc1cc2c(cc1OC)C1(c3cc(OC)c(OC)cc3C2=O)c2cc(OC)c(OC)cc2C(=O)N1/N=C/c1c2ccccc2cc2ccccc12 the CC50 at 120 h [1] was 352 µM, the viability at 120 h, up to 100 µM [2] was at least 90% and the Activity (Chikungunya virus [3]) was “inactive”. For the same compound, the Activity (Chikungunya virus [4]) was “inactive”.
In the case of COc1cc2c(cc1OC)C1(c3cc(OC)c(OC)cc3C2=O)c2cc(OC)c(OC)cc2C(=O)N1/N=C/c1cc(OC)c(OC)c(OC)c1, the CC50 at 120 h [1] is reported as 99.8 µM, the viability at 120 h, up to 100 µM [2] is reported as at least 90% and the Activity (Dengue virus [5]) is reported as “>=1 log10CFU”. The Activity (Dengue virus [6]) was “Dose-Dependent Effect”, the Remaining viral titer (Dengue virus [7]) was 4.098 log10FFU/ml and the Activity (Chikungunya virus [8]) was “>=1 log10CFU”. The Activity (Chikungunya virus [3]) was “inactive”, the Activity (Chikungunya virus [4]) was “inactive” and the Activity (Chikungunya virus [9]) was “Dose-Dependent Effect”. For the same compound, the Activity (Dengue virus [10]) was 5.064 log10FFU/ml.
Work on COc1cc2c(cc1OC)C1(c3cc(OC)c(OC)cc3C2=O)c2cc(OC)c(OC)cc2C(=O)N1/N=C/c1ccccc1 yielded a CC50 at 120 h [1] of over 100 µM, an Activity (Dengue virus [11]) of 5.03 log10FFU/ml and a viability at 120 h, up to 100 µM [2] of at least 90%. For the same compound, the Activity (Dengue virus [12]) was “>=1 log10CFU”, the Activity (Dengue virus [6]) was “Dose-Dependent Effect” and the Activity (Chikungunya virus [13]) was “inactive”. The Activity (Chikungunya virus [14]) was “inactive”.
In the case of COc1cc2c(cc1OC)C1(c3cc(OC)c(OC)cc3C2=O)c2cc(OC)c(OC)cc2C(=O)N1/N=C/c1ccccc1O, the CC50 at 120 h [1] is reported as 173 µM, the viability at 120 h, up to 100 µM [2] is reported as at least 90% and the Activity (Dengue virus [15]) is reported as “Dose-Dependent Effect”. For the same compound, the Activity (Dengue virus [16]) was 4.101 log10FFU/ml, the Activity (Chikungunya virus [17]) was “inactive” and the Activity (Chikungunya virus [18]) was “inactive”.
With COc1cc2c(cc1OC)C1(c3cc(OC)c(OC)cc3C2=O)c2cc(OC)c(OC)cc2C(=O)N1/N=C/c1ccc(Br)cc1 the CC50 at 120 h [1] was 181 µM, the viability at 120 h, up to 100 µM [2] was at least 90% and the Activity (Dengue virus [5]) was “>=1 log10CFU”. For the same compound, the Activity (Dengue virus [6]) was “Dose-Dependent Effect”, the Remaining viral titer (Dengue virus [7]) was 5.431 log10FFU/ml and the Activity (Chikungunya virus [3]) was “inactive”. The Activity (Chikungunya virus [4]) was “inactive”.
For COc1cc(/C=N/N2C(=O)c3cc(OC)c(OC)cc3C23c2cc(OC)c(OC)cc2C(=O)c2cc(OC)c(OC)cc23)ccc1O, the CC50 at 120 h [1] was 113 µM, the viability at 120 h, up to 100 µM [2] was at least 90% and the Activity (Dengue virus [5]) was “>=1 log10CFU”. The Activity (Dengue virus [6]) was “Dose-Dependent Effect”, the Remaining viral titer (Dengue virus [7]) was 5.23 log10FFU/ml and the Activity (Chikungunya virus [3]) was “inactive”. For the same compound, the Activity (Chikungunya virus [4]) was “inactive”.
With COc1cc2c(cc1OC)C1(c3cc(OC)c(OC)cc3C2=O)c2cc(OC)c(OC)cc2C(=O)N1NC(=O)c1ccc([N+](=O)[O-])cc1 the CC50 at 120 h [1] was 97.3 µM, the viability at 120 h, up to 100 µM [2] was at least 90% and the Activity (Chikungunya virus [3]) was “inactive”. The Activity (Chikungunya virus [4]) was “inactive”.
For COc1cc2c(cc1OC)C1(c3cc(OC)c(OC)cc3C2=O)c2cc(OC)c(OC)cc2C(=O)N1/N=C/c1cc(OC)c(O)c(OC)c1, the CC50 at 120 h [1] was over 100 µM, the Activity (Dengue virus [11]) was 3.994 log10FFU/ml and the viability at 120 h, up to 100 µM [2] was at least 90%. The Activity (Dengue virus [12]) was “>=1 log10CFU”, the Activity (Dengue virus [6]) was “Dose-Dependent Effect” and the Remaining viral titer (Dengue virus [7]) was 5.052 log10FFU/ml. For the same compound, the Activity (Chikungunya virus [13]) was “inactive” and the Activity (Chikungunya virus [14]) was “inactive”.
In the case of COc1cc2c(cc1OC)C1(c3cc(OC)c(OC)cc3C2=O)c2cc(OC)c(OC)cc2C(=O)N1NC(=O)c1cc(C(F)(F)F)cc(C(F)(F)F)c1, the CC50 at 120 h [1] is reported as 98.9 µM, the viability at 120 h, up to 100 µM [2] is reported as at least 90% and the Activity (Chikungunya virus [8]) is reported as “>=1 log10CFU”. For the same compound, the Activity (Chikungunya virus [3]) was “inactive”, the Activity (Chikungunya virus [4]) was “inactive” and the Activity (Chikungunya virus [9]) was “Dose-Dependent Effect”.
With COc1cc2c(cc1OC)C1(c3cc(OC)c(OC)cc3C2=O)c2cc(OC)c(OC)cc2C(=O)N1/N=C/c1ccc(N(C)C)cc1 the CC50 at 120 h [1] was 122 µM, the viability at 120 h, up to 100 µM [2] was at least 90% and the Activity (Chikungunya virus [3]) was “inactive”. For the same compound, the Activity (Chikungunya virus [4]) was “inactive”.
For COc1cc2c(cc1OC)C1(c3cc(OC)c(OC)cc3C2=O)c2cc(OC)c(OC)cc2C(=O)N1/N=C/c1ccc2ccccc2n1, the CC50 at 120 h [1] was 100 µM, the viability at 120 h, up to 100 µM [2] was at least 90% and the Activity (Chikungunya virus [19]) was “inactive”. For the same compound, the Activity (Chikungunya virus [20]) was “inactive”.
In the case of COc1cc2c(cc1OC)C1(c3cc(OC)c(OC)cc3C2=O)c2cc(OC)c(OC)cc2C(=O)N1/N=C/c1cccs1, the CC50 at 120 h [1] is reported as 52.7 µM, the viability at 120 h, up to 100 µM [2] is reported as at least 90% and the Activity (Chikungunya virus [21]) is reported as “inactive”. For the same compound, the Activity (Chikungunya virus [22]) was “inactive”.
